Source: ChEMBL document CHEMBL1201862, “PubChem BioAssay data set” (2004)
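Cultured in 96-well plates, cells were exposed to test compound for 48 hours across five concentrations. At the GI50, growth is halved.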 Activity calls are given as the source filed them. Rule as the data show it: active = GI50 up to about 1.1 µM and inactive = higher.

What was measured:
Experiment in all cases: NCI anticancer screen, dose series, 48 h
U-251 = system: U-251
RXF 393 = system: RXF 393
OVCAR-8 = system: OVCAR-8
CCRF-CEM = system: CCRF-CEM
EKVX = system: EKVX
HCC 2998 = system: HCC 2998
HOP-92 = system: HOP-92
SK-MEL-28 = system: SK-MEL-28
NCI/ADR-RES = system: NCI/ADR-RES
SN12C = system: SN12C
LOX IMVI = system: LOX IMVI
MOLT-4 = system: MOLT-4
PC-3 = system: PC-3
UACC-62 = system: UACC-62
SW-620 = system: SW-620
SF-295 = system: SF-295
OVCAR-3 = system: OVCAR-3
OVCAR-5 = system: OVCAR-5
NCI-H522 = system: NCI-H522
NCI-H460 = system: NCI-H460

Structure (SMILES)	GI50 (U-251)	GI50 (RXF 393)	GI50 (OVCAR-8)	GI50 (CCRF-CEM)	GI50 (EKVX)	GI50 (HCC 2998)	GI50 (HOP-92)	GI50 (SK-MEL-28)	GI50 (NCI/ADR-RES)	GI50 (SN12C)	GI50 (LOX IMVI)	GI50 (MOLT-4)	GI50 (PC-3)	GI50 (UACC-62)	GI50 (SW-620)	GI50 (SF-295)	GI50 (OVCAR-3)	GI50 (OVCAR-5)	GI50 (NCI-H522)	GI50 (NCI-H460)
Cc1nc2nn[nH]n2c(=O)c1CCO	> 100 µM (inactive)	> 100 µM (inactive)	> 100 µM (inactive)	> 100 µM (inactive)	> 100 µM (inactive)	> 100 µM (inactive)	> 100 µM (inactive)	> 100 µM (inactive)	> 100 µM (inactive)	> 100 µM (inactive)	> 100 µM (inactive)	> 100 µM (inactive)	> 100 µM (inactive)	> 100 µM (inactive)	> 100 µM (inactive)	> 100 µM (inactive)	> 100 µM (inactive)	> 100 µM (inactive)	> 100 µM (inactive)	> 100 µM (inactive)
CCOC(=O)C(SCCO)C(C(=O)OCC)n1cnc2c(N)ncnc21 (stereo not given)	7.26 µM (inactive)	14.6 µM (inactive)	13.9 µM (inactive)	1.96 µM (inactive)	16.5 µM (inactive)	13.8 µM (inactive)	2.47 µM (inactive)	17.3 µM (inactive)	19.8 µM (inactive)	9.98 µM (inactive)	5.61 µM (inactive)	4.78 µM (inactive)	6.05 µM (inactive)	12.3 µM (inactive)	3.01 µM (inactive)	40.2 µM (inactive)	12.7 µM (inactive)	7.05 µM (inactive)	3.46 µM (inactive)	12.4 µM (inactive)
N/C(=N\Nc1ccc(Cl)cc1)c1cnccn1	> 100 µM (inactive)	> 100 µM (inactive)	> 100 µM (inactive)	28.6 µM (inactive)	81.7 µM (inactive)	22.9 µM (inactive)	> 100 µM (inactive)	73.6 µM (inactive)	44 µM (inactive)	> 100 µM (inactive)	84.1 µM (inactive)	39.8 µM (inactive)	54.7 µM (inactive)	5.04 µM (inactive)	> 100 µM (inactive)	13.2 µM (inactive)	64.3 µM (inactive)	> 100 µM (inactive)	28.3 µM (inactive)	37.2 µM (inactive)
NCCSS(=O)(=O)CCN	> 100 µM (inactive)	> 100 µM (inactive)	> 100 µM (inactive)	> 100 µM (inactive)	> 100 µM (inactive)	> 100 µM (inactive)	> 100 µM (inactive)	> 100 µM (inactive)	> 100 µM (inactive)	> 100 µM (inactive)	> 100 µM (inactive)	> 100 µM (inactive)	> 100 µM (inactive)	> 100 µM (inactive)	> 100 µM (inactive)	> 100 µM (inactive)	> 100 µM (inactive)	> 100 µM (inactive)	> 100 µM (inactive)	> 100 µM (inactive)
C=C1C(C2(C)C(OC(C)=O)CC(=O)OC(C)(COC(C)=O)C2CC(=O)OC)C(OC=O)C(OC(=O)C(O)C(C)CC)C2(C)C(c3ccoc3)CC(=O)C12O (stereo not given)	3.86 µM (inactive)	2.7 µM (inactive)	10.2 µM (inactive)	0.65 µM (active)	6.32 µM (inactive)	0.16 µM (active)	7.35 µM (inactive)	10.8 µM (inactive)	45.9 µM (inactive)	10.8 µM (inactive)	3.82 µM (inactive)	> 100 µM (inactive)	5.52 µM (inactive)	> 30.7 µM (inactive)	2.08 µM (inactive)	4.32 µM (inactive)	> 42.7 µM (inactive)	> 100 µM (inactive)	0.83 µM (active)	2.65 µM (inactive)
CSC(=Nc1nnc(-c2ccc([N+](=O)[O-])cc2)s1)SC	21.4 µM (inactive)	20 µM (inactive)	34.4 µM (inactive)	> 100 µM (inactive)	54.5 µM (inactive)	> 79.6 µM (inactive)	9.25 µM (inactive)	77.4 µM (inactive)	33.5 µM (inactive)	52.2 µM (inactive)	31.9 µM (inactive)	> 100 µM (inactive)	> 41.9 µM (inactive)	25.8 µM (inactive)	> 100 µM (inactive)	18.5 µM (inactive)	57.3 µM (inactive)	> 100 µM (inactive)	15.5 µM (inactive)	> 89.1 µM (inactive)
O=c1[nH]c(=O)n(C2CC(O)C(CO)O2)cc1I (stereo not given)	> 100 µM (inactive)	> 100 µM (inactive)	> 100 µM (inactive)	17.5 µM (inactive)	> 100 µM (inactive)	> 82.6 µM (inactive)	> 100 µM (inactive)	> 100 µM (inactive)	> 100 µM (inactive)	89.9 µM (inactive)	> 87.1 µM (inactive)	75.7 µM (inactive)	> 100 µM (inactive)	> 100 µM (inactive)	> 100 µM (inactive)	> 100 µM (inactive)	> 100 µM (inactive)	> 100 µM (inactive)	> 100 µM (inactive)	> 60.7 µM (inactive)
